From patent US20260200943A1, “COMPOUNDS FOR TREATING CANCER” (Genesis Therapeutics, Inc., priority 2022, published 2026) come the findings set out here.

Assay type in all cases: biochemical
The target in one experiment is T1, CDK2/CyclinA2 (Homo sapiens, UniProt P24941).
T1 construct: Wild-type, full length CDK2 in complex with wildtype, full length CyclinA2: Carna Cat #04-103; purchased Carna 04-103
Put plainly: CDK2/CyclinA2 ChEF Assay (AQT, Table C). The conditions noted are these: 10xKm; for Ki: AQT ChEF, read-out: CDK2/CCNA2 AQT10xKm Ki: Average Ki; for CDK2/CCNA2 AQT10xKm Ki: CDK2/A2 Selectivity over CDK1/B1 / CDK2/CCNA2 AQT10xKm Ki: CDK2/A2 selectivity over CDK4/D1 / CDK2/CCNA2 AQT10xKm Ki: CDK2/A2 selectivity over CDK6/D3 / CDK2/CCNA2 AQT10xKm Ki: CDK2/A2 Selectivity over CDK9: AQT. The procedure: (§1) 16 nL of 1000× compound in 100% DMSO is added to a 384-well low volume, black assay plate. 12 μL of 1.3×CDK2/CyclinA2 (Wild-type, full length CDK2 in complex with wildtype, full length CyclinA2: Carna Cat #04-103 diluted in assay buffer (54 mM Hepes, 0.012% Brij-35, 10 mM MgCl2, 0.55 mM EGTA, 1% Glycerol, 0.02% BSA, and 1.2 mM DTT) is added to the plates on top of the compound and pre-incubated for 30 minutes at room temperature. Following the incubation, 4 uL of 4×Sox-chromophore (CSox) labeled peptide substrate (AQT0297, AssayQuant) & ATP diluted in assay buffer is added to the plate to initiate the reaction. The assay is incubated at room temperature for 90 min after initiation. The CSox peptide substrate is phosphorylated by CDK2/A2 upon ATP hydrolysis.
(§2) The fluorescent intensity measurement of the assay plate is read on a microplate reader once the assay is initiated and again at the completion of the assay. Phosphorylation of the CSox-based peptide substrate sensor results in an immediate increase in fluorescence. These raw fluorescence intensity values are normalized to calculate percent inhibition, which are fit to a four-parameter logistic curve and IC50 values are calculated. IC50 values are converted to Ki using substrate, KM^app values, and the Cheng-Prusoff equation.

The target of another experiment is T2, CDK1/CyclinB1 (Homo sapiens, UniProt P06493).
T2 construct: Wild-type, full length CDK1 in complex with wildtype, full length CyclinB1: Carna Cat #04-102; purchased Carna 04-102
The experiment in a line: CDK1/CyclinB1 ChEF Assay (AQT, Table C). The settings on record: 10xKm, read-out: CDK1/CCNB1 AQT AQT10xKm Ki: Average Ki. The procedure: as §1, with “1.3×CDK1/CyclinB1” for “1.3×CDK2/CyclinA2”, “CDK1” for “CDK2”, “CyclinB1:” for “CyclinA2:”, “#04-102)” for “#04-103”, “120” for “90”, “CDK1/B1” for “CDK2/A2”
as §2

A further experiment deals with T3, CDK4/CyclinD1 (Homo sapiens, UniProt P11802).
T3 construct: Wild-type, full length CDK4 in complex with wildtype, CyclinD1: ThermoFisher Cat #PR8064A; purchased ThermoFisher PR8064A
Put plainly: CDK4/CyclinD1 ChEF Assay (AQT, Table C). The conditions noted are these: read-out: CDK4/CCND1 AQT Ki: Average Ki. The procedure: 16 nL of 1000× compound in 100% DMSO is added to a 384-well low volume, black assay plate. 12 μL of 1.3×CDK4/CyclinD1 (Wild-type, full length CDK4 in complex with wildtype, CyclinD1: ThermoFisher Cat #PR8064A) diluted in assay buffer (54 mM Hepes, 0.012% Brij-35, 10 mM MgCl2, 0.55 mM EGTA, 1% Glycerol, 0.02% BSA, and 1.2 mM DTT) is added to the plates on top of the compound and pre-incubated for 30 minutes at room temperature. Following the incubation, 4 uL of 4×Sox-chromophore (CSox) labeled peptide substrate (AQT0258, AssayQuant) & ATP diluted in assay buffer is added to the plate to initiate the reaction. The assay is incubated at room temperature for 150 min after initiation. The CSox peptide substrate is phosphorylated by CDK4/D1 upon ATP hydrolysis.
The fluorescent intensity measurement of the assay plate is read on a microplate reader once the assay is initiated and again at the completion of the assay. Phosphorylation of the CSox-based peptide substrate sensor results in an immediate increase in fluorescence. These raw fluorescence intensity values are normalized to calculate percent inhibition, which are fit to a four-parameter logistic curve and IC50 values are calculated. IC50 values are converted to Ki using substrate, KM^ap values, and the Cheng-Prusoff equation.

The next experiment deals with CDK9/CyclinT1 (Homo sapiens, UniProt P50750). The experiment in a line: CDK9/CyclinT1 ChEF Assay (AQT, Table C). Set-up: Wild-type, full length CDK9 in complex with wildtype, CyclinT1 (1-259): Biortus Cat #BP480/792/691; purchased Biortus BP480/792/691. The settings on record: 10XKm. The procedure:
16 nL of 1000× compound in 100% DMSO is added to a 384-well low volume, black assay plate. 12 μL of 1.3×CDK9/CyclinT1 (Wild-type, full length CDK9 in complex with wildtype, CyclinT1 (1-259): Biortus Cat #BP480/792/691) diluted in assay buffer (54 mM Hepes, 0.012% Brij-35, 10 mM MgCl2, 0.55 mM EGTA, 1% Glycerol, 0.02% BSA, and 1.2 mM DTT) is added to the plates on top of the compound and pre-incubated for 30 minutes at room temperature. Following the incubation, 4 μL of 4×Sox-chromophore (CSox) labeled peptide substrate (AQT0449, AssayQuant) & ATP diluted in assay buffer is added to the plate to initiate the reaction. The assay is incubated at room temperature for 180 min after initiation. The CSox peptide substrate is phosphorylated by CDK9/T1 upon ATP hydrolysis.
as §2

T2 sequence (P06493 whole entry): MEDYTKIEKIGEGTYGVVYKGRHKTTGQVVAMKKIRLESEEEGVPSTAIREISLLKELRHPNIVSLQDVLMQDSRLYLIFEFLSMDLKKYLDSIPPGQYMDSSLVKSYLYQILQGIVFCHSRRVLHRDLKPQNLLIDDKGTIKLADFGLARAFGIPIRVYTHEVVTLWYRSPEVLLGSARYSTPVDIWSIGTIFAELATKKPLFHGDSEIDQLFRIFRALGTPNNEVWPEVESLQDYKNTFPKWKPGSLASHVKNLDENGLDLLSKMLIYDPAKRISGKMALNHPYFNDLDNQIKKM
T2 sequence (P14635 whole entry partner): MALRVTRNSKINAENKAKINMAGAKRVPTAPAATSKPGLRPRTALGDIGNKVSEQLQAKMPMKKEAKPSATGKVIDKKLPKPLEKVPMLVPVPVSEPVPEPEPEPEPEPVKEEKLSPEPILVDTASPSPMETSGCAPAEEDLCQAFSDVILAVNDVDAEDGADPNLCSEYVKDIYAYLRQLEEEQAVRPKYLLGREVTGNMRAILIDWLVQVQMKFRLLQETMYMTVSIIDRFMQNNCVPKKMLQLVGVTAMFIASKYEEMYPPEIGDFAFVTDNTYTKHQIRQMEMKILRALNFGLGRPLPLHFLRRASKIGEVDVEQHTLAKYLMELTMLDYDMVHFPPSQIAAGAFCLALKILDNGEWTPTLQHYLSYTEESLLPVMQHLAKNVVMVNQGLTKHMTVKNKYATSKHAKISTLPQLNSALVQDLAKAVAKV
Sequence of CDK9/CyclinT1 (P50750 whole entry): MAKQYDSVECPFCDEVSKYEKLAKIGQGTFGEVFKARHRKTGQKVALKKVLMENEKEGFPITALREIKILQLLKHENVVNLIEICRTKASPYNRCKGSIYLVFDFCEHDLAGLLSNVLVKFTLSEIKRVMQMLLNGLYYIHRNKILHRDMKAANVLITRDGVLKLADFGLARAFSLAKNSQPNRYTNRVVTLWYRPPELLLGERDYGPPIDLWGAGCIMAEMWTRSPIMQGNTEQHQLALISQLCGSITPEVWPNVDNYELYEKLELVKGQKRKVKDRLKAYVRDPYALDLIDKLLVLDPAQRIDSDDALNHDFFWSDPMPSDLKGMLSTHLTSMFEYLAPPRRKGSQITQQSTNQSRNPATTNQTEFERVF
Sequence of CDK9/CyclinT1 (O60563 1-259 partner limits assumed): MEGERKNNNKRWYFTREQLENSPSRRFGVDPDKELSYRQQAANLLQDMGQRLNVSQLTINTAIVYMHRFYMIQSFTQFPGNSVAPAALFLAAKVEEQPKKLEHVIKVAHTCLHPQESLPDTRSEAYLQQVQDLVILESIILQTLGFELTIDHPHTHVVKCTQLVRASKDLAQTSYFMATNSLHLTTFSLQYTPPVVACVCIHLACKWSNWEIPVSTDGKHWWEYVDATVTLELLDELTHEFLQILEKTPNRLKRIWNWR
T3 sequence (P11802 whole entry): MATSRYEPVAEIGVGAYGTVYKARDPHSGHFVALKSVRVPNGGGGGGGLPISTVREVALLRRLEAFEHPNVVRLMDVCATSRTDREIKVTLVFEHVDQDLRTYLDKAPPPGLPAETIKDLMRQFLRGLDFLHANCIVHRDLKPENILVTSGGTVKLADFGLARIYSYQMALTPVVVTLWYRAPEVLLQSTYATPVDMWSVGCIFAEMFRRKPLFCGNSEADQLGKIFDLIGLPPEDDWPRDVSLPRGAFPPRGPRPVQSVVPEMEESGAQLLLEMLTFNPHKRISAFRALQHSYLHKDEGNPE
T3 sequence (P24385 whole entry partner): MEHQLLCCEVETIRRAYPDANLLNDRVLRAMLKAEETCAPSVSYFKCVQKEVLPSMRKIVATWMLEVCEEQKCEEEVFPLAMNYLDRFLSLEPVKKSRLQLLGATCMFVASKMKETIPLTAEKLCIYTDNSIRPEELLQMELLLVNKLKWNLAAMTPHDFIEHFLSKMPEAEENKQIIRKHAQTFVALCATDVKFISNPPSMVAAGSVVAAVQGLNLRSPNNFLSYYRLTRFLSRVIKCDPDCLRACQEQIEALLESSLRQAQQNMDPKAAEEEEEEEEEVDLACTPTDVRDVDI

For `NS(=O)(=O)c1ccc2cc1OCCCCCNC(=O)O[C@@H]1CC[C@@H](C1)c1cnc(nc1)N2` (stereo in doubt) [Compound 105, rel-(2S,5R)-7-oxo-6,14-dioxa-8,20,22,25-tetraazatetracyclo[19.2.2.1^{2,5}.1^{15,19}]heptacosa-1(23),15,17,19(26),21,24-hexaene-16-sulfonamide], at CDK2/CyclinA2, the Ki is < 1 nM, the “CDK2/CCNA2 AQT10xKm Ki: CDK2/A2 Selectivity over CDK1/B1” value is given as “A (A>10)”, the “CDK2/CCNA2 AQT10xKm Ki: CDK2/A2 selectivity over CDK4/D1” value is given as “A (A>10)” and the “CDK2/CCNA2 AQT10xKm Ki: CDK2/A2 selectivity over CDK6/D3” value is “A (A>10)”. The “CDK2/CCNA2 AQT10xKm Ki: CDK2/A2 Selectivity over CDK9” value at CDK2/CyclinA2 is recorded as “A (A>10)”. On CDK1/CyclinB1, the Ki fell in the range of 1 to 25 nM. Moreover, the Ki at CDK4/CyclinD1 is ≥ 100 nM. The Ki at CDK9/CyclinT1 was 25 to 100 nM.

For `O=C1NCCCCCCNS(=O)(=O)c2ccc(c(F)c2)Nc2cc([nH]n2)[C@H]2CC[C@H](C2)O1` [Compound 91, (1^1S,1^3R,Z)-4^2-fluoro-2^1H-15-oxa-5-thia-3,6,13-triaza-2(5,3)-pyrazola-4(1,4)-benzena-1(1,3)-cyclopentanacyclopentadecaphan-14-one 5,5-dioxide], at CDK2/CyclinA2, the Ki is < 1 nM, the “CDK2/CCNA2 AQT10xKm Ki: CDK2/A2 Selectivity over CDK1/B1” value is “A (A>10)”, the “CDK2/CCNA2 AQT10xKm Ki: CDK2/A2 selectivity over CDK4/D1” value is reported as “A (A>10)” and the “CDK2/CCNA2 AQT10xKm Ki: CDK2/A2 selectivity over CDK6/D3” value was “A (A>10)”. Further, the “CDK2/CCNA2 AQT10xKm Ki: CDK2/A2 Selectivity over CDK9” value at CDK2/CyclinA2 is “A (A>10)”. For the same molecule, on CDK1/CyclinB1, the Ki fell in the range of 1 to 25 nM. Also, the Ki at CDK4/CyclinD1 is ≥ 100 nM. Besides, the Ki at CDK9/CyclinT1 was 25 to 100 nM.

As to `O=C1NCCCCCCn2cc(cn2)S(=O)(=O)N2CCC(CC2)Nc2cc([nH]n2)[C@H]2CC[C@H](C2)O1` [Compound 97, (1^1S,1^3R,2^4Z,6^4E)-2^1H,6^1H-15-oxa-5-thia-3,13-diaza-4(4,1)-piperidina-2(5,3),6(4,1)-dipyrazola-1(1,3)-cyclopentanacyclopentadecaphan-14-one 5,5-dioxide], at CDK2/CyclinA2, the Ki is < 1 nM, the “CDK2/CCNA2 AQT10xKm Ki: CDK2/A2 Selectivity over CDK1/B1” value is listed as “A (A>10)” and the “CDK2/CCNA2 AQT10xKm Ki: CDK2/A2 Selectivity over CDK9” value was “A (A>10)”. Besides, the Ki at CDK1/CyclinB1 lay in the range of 1 to 25 nM. Further, at CDK9/CyclinT1, the Ki was 25 to 100 nM.
